Results: ChEMBL document CHEMBL1221276, “Structure-based design, synthesis, and biological evaluation of lipophilic-tailed monocationic inhibitors of neuronal nitric oxide synthase” (Bioorg Med Chem, 2010)

What was measured:
[1] = molecular target: T1, Nitric oxide synthase, inducible (Mus musculus, UniProt P29477); assay: Inhibition of mouse recombinant iNOS expressed in Escherichia coli by hemoglobin capture assay
T1 sequence (P29477 whole entry): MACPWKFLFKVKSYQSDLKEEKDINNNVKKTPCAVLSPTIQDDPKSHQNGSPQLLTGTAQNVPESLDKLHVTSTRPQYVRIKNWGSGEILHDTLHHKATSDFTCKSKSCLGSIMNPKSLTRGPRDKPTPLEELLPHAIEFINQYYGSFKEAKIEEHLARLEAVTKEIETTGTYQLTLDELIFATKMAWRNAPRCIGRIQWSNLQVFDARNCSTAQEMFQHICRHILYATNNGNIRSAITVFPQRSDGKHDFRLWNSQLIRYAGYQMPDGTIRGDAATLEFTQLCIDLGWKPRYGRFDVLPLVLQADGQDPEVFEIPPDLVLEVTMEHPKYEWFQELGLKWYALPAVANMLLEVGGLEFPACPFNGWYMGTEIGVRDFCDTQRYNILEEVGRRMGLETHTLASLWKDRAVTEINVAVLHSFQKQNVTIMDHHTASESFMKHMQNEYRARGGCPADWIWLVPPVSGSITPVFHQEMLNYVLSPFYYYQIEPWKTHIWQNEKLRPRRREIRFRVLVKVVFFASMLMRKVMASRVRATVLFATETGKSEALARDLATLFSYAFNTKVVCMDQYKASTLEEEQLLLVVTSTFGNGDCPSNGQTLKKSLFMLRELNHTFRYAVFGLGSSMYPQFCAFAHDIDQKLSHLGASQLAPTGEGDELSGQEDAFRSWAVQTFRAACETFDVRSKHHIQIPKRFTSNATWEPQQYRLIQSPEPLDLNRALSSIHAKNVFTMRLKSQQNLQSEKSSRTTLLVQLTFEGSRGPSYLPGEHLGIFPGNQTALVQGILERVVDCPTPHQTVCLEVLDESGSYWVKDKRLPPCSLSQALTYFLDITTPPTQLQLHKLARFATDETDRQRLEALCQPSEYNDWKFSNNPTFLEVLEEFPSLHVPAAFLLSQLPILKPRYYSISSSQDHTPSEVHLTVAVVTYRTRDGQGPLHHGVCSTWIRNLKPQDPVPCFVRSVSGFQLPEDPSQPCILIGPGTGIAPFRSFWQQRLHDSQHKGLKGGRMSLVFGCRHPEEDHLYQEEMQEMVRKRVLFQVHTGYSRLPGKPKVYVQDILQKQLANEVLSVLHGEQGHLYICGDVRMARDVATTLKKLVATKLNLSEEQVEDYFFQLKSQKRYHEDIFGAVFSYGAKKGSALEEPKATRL

Nitric oxide synthase 3 = molecular target: T2, Nitric oxide synthase 3 (Bos taurus, UniProt P29473); assay: Inhibition of bovine recombinant eNOS expressed in Escherichia coli by hemoglobin capture assay
T2 sequence (P29473 whole entry): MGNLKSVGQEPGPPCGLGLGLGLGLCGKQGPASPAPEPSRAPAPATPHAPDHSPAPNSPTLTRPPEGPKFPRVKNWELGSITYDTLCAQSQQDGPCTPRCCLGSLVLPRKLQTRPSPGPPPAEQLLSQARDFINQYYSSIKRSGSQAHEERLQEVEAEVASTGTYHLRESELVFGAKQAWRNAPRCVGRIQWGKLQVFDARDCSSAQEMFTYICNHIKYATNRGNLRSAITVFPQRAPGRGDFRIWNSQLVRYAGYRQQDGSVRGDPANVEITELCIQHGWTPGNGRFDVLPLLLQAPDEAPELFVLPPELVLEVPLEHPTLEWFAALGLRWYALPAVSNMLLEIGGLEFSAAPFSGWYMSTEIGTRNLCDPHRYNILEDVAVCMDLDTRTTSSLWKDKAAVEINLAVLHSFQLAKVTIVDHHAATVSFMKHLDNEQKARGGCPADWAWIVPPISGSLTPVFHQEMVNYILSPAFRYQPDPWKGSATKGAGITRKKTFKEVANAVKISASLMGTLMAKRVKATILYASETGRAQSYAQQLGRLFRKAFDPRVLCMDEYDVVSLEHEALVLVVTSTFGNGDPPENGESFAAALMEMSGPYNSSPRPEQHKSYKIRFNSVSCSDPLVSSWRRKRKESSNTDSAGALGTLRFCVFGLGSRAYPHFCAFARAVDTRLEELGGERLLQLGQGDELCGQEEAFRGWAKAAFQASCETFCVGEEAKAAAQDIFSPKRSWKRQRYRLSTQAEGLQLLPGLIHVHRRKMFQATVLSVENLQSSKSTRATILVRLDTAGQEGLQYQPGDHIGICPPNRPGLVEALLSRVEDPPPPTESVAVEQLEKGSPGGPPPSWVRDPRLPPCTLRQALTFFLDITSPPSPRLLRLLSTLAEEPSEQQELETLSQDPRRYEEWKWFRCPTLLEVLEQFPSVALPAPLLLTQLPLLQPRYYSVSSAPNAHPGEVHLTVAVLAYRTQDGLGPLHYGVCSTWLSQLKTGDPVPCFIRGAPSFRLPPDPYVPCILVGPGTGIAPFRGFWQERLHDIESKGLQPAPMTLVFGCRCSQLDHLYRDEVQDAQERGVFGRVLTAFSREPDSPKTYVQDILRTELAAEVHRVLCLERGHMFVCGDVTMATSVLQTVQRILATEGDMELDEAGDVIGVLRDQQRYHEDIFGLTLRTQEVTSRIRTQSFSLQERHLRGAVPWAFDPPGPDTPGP

Nitric oxide synthase 1 = Nitric oxide synthase 1 (Rattus norvegicus, UniProt P29476); assay: Inhibition of rat recombinant nNOS expressed in Escherichia coli by hemoglobin capture assay
Chain of Nitric oxide synthase 1 (P29476 whole entry): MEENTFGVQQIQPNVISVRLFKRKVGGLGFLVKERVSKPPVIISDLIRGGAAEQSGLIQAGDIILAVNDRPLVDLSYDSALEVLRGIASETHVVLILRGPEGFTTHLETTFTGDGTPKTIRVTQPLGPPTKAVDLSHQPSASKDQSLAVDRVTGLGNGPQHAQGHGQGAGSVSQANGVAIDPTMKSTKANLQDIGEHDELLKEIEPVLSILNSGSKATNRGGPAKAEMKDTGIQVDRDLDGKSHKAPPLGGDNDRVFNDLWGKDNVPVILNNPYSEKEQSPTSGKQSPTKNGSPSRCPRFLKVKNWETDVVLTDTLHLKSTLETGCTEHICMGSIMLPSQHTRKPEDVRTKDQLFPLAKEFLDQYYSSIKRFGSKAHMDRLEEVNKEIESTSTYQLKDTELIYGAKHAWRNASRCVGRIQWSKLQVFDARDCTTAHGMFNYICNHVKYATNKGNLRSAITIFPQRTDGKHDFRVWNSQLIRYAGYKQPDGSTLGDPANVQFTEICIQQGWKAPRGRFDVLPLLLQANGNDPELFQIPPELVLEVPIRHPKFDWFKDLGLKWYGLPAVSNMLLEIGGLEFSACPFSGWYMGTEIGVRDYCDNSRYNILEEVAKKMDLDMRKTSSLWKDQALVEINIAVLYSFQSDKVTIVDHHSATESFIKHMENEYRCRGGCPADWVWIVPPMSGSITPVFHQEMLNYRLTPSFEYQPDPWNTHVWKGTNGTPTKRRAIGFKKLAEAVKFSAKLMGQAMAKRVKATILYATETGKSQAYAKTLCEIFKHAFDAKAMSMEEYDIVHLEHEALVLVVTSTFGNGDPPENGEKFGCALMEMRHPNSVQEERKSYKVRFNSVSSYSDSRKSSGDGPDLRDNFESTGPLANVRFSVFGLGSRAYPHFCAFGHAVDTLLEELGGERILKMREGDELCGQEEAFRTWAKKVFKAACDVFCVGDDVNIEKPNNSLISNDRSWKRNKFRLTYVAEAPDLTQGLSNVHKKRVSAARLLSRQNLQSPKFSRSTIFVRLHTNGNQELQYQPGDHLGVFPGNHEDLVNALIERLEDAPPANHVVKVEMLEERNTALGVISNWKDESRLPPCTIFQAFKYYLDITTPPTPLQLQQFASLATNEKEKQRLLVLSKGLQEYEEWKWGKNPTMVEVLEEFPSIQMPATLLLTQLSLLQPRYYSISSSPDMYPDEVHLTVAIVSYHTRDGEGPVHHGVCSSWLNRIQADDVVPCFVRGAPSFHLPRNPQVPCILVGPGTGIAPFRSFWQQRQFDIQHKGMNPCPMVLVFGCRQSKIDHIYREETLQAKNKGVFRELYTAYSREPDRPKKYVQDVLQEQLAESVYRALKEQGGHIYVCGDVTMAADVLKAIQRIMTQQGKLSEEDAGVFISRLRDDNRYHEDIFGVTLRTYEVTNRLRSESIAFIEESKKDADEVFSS

For `Cc1cc(N)nc(C[C@@H]2CNC[C@@H]2OCc2ccc(-c3cccc(C(F)(F)F)c3)cc2)c1` (racemic), the Ki [1] was 37.3 µM and the Ki (Nitric oxide synthase 3) was 13.6 µM.
Work on `Cc1cc(N)nc(C[C@@H]2CNC[C@@H]2OCc2ccc(-c3ccc(F)c(C)c3)cc2)c1` (racemic) yielded a Ki (Nitric oxide synthase 1) of 0.62 µM and a Ki [1] of 22.1 µM.
`Cc1cc(N)nc(C[C@@H]2CNC[C@@H]2OCc2ccc(-c3cccc(Cl)c3)cc2)c1` (racemic) was tested, and the Ki (Nitric oxide synthase 1) was 1.2 µM, the Ki [1] was 55.6 µM and the Ki (Nitric oxide synthase 3) was 26 µM.
Work on `Cc1cc(N)nc(C[C@@H]2CNC[C@@H]2OCc2ccc(-c3cccc(F)c3)cc2)c1` (racemic) yielded a Ki (Nitric oxide synthase 1) of 0.75 µM, a Ki [1] of 39.5 µM and a Ki (Nitric oxide synthase 3) of 13.3 µM.
`Nc1cccc(C[C@@H]2CNC[C@@H]2Oc2cccc(Oc3ccccc3)c2)n1` (racemic) showed a Ki (Nitric oxide synthase 1) of 3 µM.
Compound `Cc1cc(N)nc(C[C@@H]2CNC[C@@H]2OCc2ccc(-c3ccc(F)c(Cl)c3)cc2)c1` (racemic) has a Ki (Nitric oxide synthase 1) of 0.76 µM.
